According to article PMC4412093, “Identification of a Novel Series of Potent TrkA Receptor Tyrosine Kinase Inhibitors” (International Journal of Medicinal Chemistry, 2012):
Each block holds one compound with its values, some of them ahead of it.

Columns and labels:
TrkA [1] = conditions: read-out: TrkA IC50 (reported); cited from earlier work
c-Met [2] = biological target: T1, c-Met (Homo sapiens, UniProt P08581); test: c-Met kinase enzyme inhibition; type: biochemical; conditions: average of ≥3 experiments
T1 sequence (P08581 25-1390): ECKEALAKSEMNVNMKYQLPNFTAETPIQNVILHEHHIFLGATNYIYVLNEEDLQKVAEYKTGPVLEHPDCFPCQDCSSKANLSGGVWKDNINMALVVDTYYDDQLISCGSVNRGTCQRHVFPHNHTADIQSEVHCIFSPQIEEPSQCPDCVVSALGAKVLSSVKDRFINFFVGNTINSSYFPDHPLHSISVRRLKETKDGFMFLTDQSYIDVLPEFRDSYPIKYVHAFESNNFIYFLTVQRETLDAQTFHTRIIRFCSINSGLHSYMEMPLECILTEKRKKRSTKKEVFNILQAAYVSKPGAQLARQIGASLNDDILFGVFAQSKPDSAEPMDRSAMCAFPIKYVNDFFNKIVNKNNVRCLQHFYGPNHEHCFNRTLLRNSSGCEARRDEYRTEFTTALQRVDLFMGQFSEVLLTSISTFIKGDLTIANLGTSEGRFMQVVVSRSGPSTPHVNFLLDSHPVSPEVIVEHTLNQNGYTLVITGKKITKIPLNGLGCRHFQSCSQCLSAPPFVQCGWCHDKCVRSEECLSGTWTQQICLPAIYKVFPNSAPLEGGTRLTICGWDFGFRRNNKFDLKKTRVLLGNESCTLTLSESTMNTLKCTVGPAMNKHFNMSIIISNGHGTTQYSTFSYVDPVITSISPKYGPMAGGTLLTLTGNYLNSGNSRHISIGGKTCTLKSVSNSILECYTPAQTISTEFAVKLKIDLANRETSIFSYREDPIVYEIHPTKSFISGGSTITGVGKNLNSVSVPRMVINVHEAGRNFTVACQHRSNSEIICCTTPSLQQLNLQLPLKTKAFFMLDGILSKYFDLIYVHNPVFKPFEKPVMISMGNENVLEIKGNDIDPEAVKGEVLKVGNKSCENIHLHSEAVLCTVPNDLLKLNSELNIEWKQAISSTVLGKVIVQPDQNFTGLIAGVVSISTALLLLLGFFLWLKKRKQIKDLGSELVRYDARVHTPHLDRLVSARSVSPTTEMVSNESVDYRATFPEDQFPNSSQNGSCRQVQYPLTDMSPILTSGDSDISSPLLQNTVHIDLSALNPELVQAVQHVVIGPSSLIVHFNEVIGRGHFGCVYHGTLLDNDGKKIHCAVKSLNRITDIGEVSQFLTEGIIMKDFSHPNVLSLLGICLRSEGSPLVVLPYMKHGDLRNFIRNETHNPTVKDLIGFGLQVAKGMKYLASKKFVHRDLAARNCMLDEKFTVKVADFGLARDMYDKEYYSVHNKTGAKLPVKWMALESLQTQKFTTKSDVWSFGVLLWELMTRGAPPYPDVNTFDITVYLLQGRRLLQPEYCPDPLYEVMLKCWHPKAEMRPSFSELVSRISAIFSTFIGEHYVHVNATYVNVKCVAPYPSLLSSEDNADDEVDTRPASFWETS
Excerpt: (§1) Table 1 2-Oxo-3-phenylimidazolidine-1-carboxamide kinase inhibitors based on different scaffolds.

VEGFR2 = VEGFR2 (Homo sapiens, UniProt P35968); test: VEGFR2 kinase enzyme inhibition; type: biochemical; conditions: average of ≥3 experiments
Chain of VEGFR2 (P35968 20-1356, species assumed): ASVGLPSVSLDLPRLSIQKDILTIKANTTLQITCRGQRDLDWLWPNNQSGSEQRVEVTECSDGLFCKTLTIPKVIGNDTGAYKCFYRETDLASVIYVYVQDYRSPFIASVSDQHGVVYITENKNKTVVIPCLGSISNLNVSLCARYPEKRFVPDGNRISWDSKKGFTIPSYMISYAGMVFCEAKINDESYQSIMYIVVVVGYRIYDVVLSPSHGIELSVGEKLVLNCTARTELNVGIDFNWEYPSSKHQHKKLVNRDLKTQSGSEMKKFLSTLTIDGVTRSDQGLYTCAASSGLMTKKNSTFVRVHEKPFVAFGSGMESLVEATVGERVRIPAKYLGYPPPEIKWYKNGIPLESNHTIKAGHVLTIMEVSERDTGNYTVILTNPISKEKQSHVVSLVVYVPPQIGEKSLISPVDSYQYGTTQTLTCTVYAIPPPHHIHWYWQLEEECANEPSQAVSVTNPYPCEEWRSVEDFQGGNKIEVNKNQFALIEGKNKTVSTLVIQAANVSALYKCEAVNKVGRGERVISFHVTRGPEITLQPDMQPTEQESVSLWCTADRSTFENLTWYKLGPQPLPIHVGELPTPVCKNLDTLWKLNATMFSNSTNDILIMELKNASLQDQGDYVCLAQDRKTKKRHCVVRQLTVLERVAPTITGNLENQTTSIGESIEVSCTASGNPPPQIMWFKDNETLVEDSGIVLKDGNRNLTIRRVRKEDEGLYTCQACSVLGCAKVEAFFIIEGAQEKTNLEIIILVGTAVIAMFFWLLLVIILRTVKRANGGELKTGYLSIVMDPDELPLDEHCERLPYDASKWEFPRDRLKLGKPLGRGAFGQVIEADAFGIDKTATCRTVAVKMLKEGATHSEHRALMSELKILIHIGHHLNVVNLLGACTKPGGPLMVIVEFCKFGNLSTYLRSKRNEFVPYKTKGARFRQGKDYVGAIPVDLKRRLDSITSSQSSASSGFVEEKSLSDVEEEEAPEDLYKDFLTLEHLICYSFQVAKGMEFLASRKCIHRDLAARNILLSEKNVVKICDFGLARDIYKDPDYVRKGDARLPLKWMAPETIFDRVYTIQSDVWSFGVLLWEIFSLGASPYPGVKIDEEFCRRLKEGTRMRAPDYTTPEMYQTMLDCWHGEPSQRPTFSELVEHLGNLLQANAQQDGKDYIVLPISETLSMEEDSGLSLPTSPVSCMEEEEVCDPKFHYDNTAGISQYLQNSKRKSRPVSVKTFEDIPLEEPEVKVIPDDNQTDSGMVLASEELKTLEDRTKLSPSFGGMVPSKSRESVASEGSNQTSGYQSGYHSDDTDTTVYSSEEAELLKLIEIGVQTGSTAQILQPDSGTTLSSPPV
Excerpt: as §1

TrkA human enzyme = TrkA human enzyme (Homo sapiens, UniProt P04629); test: TrkA kinase enzyme inhibition; type: biochemical; conditions: for inhibition at 0.1 µM / inhibition at 0.03 µM: average of ≥3 experiments; for inhibition at 0.1 µM: read-out: TrkA % inh. at 0.1 μM; for IC50: average of ≥2 experiments; for inhibition at 0.03 µM: 30 nM, read-out: TrkA % inh. at 30 nM
Chain of TrkA human enzyme (P04629 33-796): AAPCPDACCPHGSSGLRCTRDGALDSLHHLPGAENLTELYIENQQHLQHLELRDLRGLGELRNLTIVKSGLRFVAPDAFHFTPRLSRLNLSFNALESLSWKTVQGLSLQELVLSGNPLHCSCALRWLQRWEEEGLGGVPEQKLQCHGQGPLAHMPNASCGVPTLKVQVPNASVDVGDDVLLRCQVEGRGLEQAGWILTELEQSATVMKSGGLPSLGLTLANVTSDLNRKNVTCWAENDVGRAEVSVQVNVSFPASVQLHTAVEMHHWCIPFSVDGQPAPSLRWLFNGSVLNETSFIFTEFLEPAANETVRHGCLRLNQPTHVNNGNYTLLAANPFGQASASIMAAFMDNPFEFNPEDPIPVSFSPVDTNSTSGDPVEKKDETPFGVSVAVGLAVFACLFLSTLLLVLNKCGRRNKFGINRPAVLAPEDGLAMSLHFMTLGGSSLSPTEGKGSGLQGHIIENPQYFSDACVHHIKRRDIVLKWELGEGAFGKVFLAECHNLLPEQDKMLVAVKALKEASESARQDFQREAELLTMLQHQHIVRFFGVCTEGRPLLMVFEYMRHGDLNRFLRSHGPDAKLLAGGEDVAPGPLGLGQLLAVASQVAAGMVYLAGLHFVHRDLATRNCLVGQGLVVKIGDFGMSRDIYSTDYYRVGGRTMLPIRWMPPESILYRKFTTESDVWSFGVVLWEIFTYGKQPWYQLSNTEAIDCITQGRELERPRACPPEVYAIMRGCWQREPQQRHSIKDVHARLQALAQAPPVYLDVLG

TrkA [3] = test system: TrkA; design: method as in PMID 18646745, PMID 19509272; conditions: read-out: TrkA EC50 (reported); cited from earlier work
CHK1 = biological target: T2, CHK1 (Homo sapiens, UniProt O14757); test: Millipore Kinaseprofiler, CHK1; type: biochemical; conditions: tested at 100 nM
T2 construct: purchased Millipore (Kinaseprofiler assay service)
Description: (§2) Compound 5 was profiled and tested at 100 nM against 24 other kinase enzymes using Millipore's Kinaseprofiler assay services.

IKKβ = biological target: T3, IKKβ (Homo sapiens, UniProt O14920); test: Millipore Kinaseprofiler, IKKβ; type: biochemical; conditions: tested at 100 nM
T3 construct: purchased Millipore (Kinaseprofiler assay service)
Description: as §2

Ret = biological target: T4, Ret (Homo sapiens, UniProt P07949); test: Millipore Kinaseprofiler, Ret; type: biochemical; conditions: tested at 100 nM
T4 construct: purchased Millipore (Kinaseprofiler assay service)
Description: as §2

Flt3 = biological target: T5, Flt3 (Homo sapiens, UniProt P36888); test: Millipore Kinaseprofiler, Flt3; type: biochemical; conditions: tested at 100 nM
T5 construct: purchased Millipore (Kinaseprofiler assay service)
Description: as §2

TrkB = TrkB (Homo sapiens, UniProt Q16620); test: TrkB kinase inhibition; type: biochemical; conditions: tested at 10 nM
Description: as §2

[4] = Rat pharmacokinetic profile; type: in vivo
Excerpt: Compound 5 was further evaluated for its pharmacokinetic properties in the rat (Table 5).

PI3-Kinaseβ = biological target: T6, PI3-Kinaseβ (Homo sapiens, UniProt P42338); test: Millipore Kinaseprofiler, PI3-Kinaseβ; type: biochemical; conditions: tested at 100 nM
T6 construct: purchased Millipore (Kinaseprofiler assay service)
Description: as §2

cKit = biological target: T7, cKit (Homo sapiens, UniProt P10721); test: Millipore Kinaseprofiler, cKit; type: biochemical; conditions: tested at 100 nM
T7 construct: purchased Millipore (Kinaseprofiler assay service)
Description: as §2

Tie2 = biological target: T8, Tie2 (Homo sapiens, UniProt Q02763); test: Millipore Kinaseprofiler, Tie2; type: biochemical; conditions: tested at 100 nM
T8 construct: purchased Millipore (Kinaseprofiler assay services)
T8 sequence (Q02763 23-1124): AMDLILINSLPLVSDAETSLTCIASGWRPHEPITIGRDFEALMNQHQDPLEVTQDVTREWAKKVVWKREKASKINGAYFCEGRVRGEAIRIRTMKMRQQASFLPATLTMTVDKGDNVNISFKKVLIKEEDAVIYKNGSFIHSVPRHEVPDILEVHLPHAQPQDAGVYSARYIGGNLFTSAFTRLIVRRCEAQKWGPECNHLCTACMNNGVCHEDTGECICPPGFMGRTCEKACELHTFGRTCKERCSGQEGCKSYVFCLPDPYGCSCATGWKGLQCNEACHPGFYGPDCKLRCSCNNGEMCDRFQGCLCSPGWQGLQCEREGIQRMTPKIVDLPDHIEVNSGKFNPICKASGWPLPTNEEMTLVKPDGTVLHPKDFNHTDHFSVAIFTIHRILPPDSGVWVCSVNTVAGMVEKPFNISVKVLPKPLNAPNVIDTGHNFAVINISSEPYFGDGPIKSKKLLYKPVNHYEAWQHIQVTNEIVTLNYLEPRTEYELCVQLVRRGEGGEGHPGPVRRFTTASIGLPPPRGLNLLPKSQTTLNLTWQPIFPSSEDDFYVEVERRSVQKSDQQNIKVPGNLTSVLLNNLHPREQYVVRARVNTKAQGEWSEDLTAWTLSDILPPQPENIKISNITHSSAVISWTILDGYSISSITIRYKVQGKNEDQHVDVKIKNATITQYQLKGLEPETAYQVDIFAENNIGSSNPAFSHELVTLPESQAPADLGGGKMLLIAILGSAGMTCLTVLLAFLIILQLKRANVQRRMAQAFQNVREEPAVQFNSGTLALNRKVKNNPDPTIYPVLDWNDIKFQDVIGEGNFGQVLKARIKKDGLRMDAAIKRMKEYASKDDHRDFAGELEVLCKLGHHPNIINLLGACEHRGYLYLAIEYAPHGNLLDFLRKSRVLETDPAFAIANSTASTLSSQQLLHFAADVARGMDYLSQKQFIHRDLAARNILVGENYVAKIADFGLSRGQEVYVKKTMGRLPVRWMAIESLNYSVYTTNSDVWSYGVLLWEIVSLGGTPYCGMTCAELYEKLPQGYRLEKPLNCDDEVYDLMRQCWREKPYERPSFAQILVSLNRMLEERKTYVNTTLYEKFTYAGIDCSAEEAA
Description: as §2

PKBα = biological target: T9, PKBα (Homo sapiens, UniProt P31749); test: Millipore Kinaseprofiler, PKBα; type: biochemical; conditions: tested at 100 nM
T9 construct: purchased Millipore (Kinaseprofiler assay service)
Description: as §2

MEK1 = biological target: T10, MEK1 (Homo sapiens, UniProt Q02750); test: Millipore Kinaseprofiler, MEK1; type: biochemical; conditions: tested at 100 nM
T10 construct: purchased Millipore (Kinaseprofiler assay service)
Description: as §2

Pim-1 = biological target: T11, Pim-1 (Homo sapiens, UniProt P11309); test: Millipore Kinaseprofiler, Pim-1; type: biochemical; conditions: tested at 100 nM
T11 construct: purchased Millipore (Kinaseprofiler assay service)
Description: as §2

Bmx = biological target: T12, Bmx (Homo sapiens, UniProt P51813); test: Millipore Kinaseprofiler, Bmx; type: biochemical; conditions: tested at 100 nM
T12 construct: purchased Millipore (Kinaseprofiler assay service)
Description: as §2

Haspin = biological target: T13, Haspin (Homo sapiens, UniProt Q8TF76); test: Millipore Kinaseprofiler, Haspin; type: biochemical; conditions: tested at 100 nM
T13 construct: purchased Millipore (Kinaseprofiler assay service)
Description: as §2

ALK = biological target: T14, ALK (Homo sapiens, UniProt Q9UM73); test: Millipore Kinaseprofiler, ALK; type: biochemical; conditions: tested at 100 nM
T14 construct: purchased Millipore (Kinaseprofiler assay service)
Description: as §2

EphB4 = biological target: T15, EphB4 (Homo sapiens, UniProt P54760); test: Millipore Kinaseprofiler, EphB4; type: biochemical; conditions: tested at 100 nM
T15 construct: purchased Millipore (Kinaseprofiler assay service)
Description: as §2

FAK = biological target: T16, FAK (Homo sapiens, UniProt Q05397); test: Millipore Kinaseprofiler, FAK; type: biochemical; conditions: tested at 100 nM
T16 construct: purchased Millipore (Kinaseprofiler assay service)
Description: as §2

JAK3 = biological target: T17, JAK3 (Homo sapiens, UniProt P52333); test: Millipore Kinaseprofiler, JAK3; type: biochemical; conditions: tested at 100 nM
T17 construct: purchased Millipore (Kinaseprofiler assay service)
Description: as §2

JAK2 = biological target: T18, JAK2 (Homo sapiens, UniProt O60674); test: Millipore Kinaseprofiler, JAK2; type: biochemical; conditions: tested at 100 nM
T18 construct: purchased Millipore (Kinaseprofiler assay service)
Description: as §2

c-Raf = biological target: T19, c-Raf (Homo sapiens, UniProt P04049); test: Millipore Kinaseprofiler, c-Raf; type: biochemical; conditions: tested at 100 nM
T19 construct: purchased Millipore (Kinaseprofiler assay service)
Description: as §2

LIMK1 = biological target: T20, LIMK1 (Homo sapiens, UniProt P53667); test: Millipore Kinaseprofiler, LIMK1; type: biochemical; conditions: tested at 100 nM
T20 construct: purchased Millipore (Kinaseprofiler assay service)
Description: as §2

Ron = biological target: T21, Ron (Homo sapiens, UniProt Q04912); test: Millipore Kinaseprofiler, Ron; type: biochemical; conditions: tested at 100 nM
T21 construct: purchased Millipore (Kinaseprofiler assay service)
Description: as §2

c-Met [5] = biological target: T1, c-Met; test: Millipore Kinaseprofiler, c-Met; type: biochemical; design: purchased Millipore (Kinaseprofiler assay service); conditions: tested at 100 nM
Description: as §2

PDK1 = biological target: T22, PDK1 (Homo sapiens, UniProt O15530); test: Millipore Kinaseprofiler, PDK1; type: biochemical; conditions: tested at 100 nM
T22 construct: purchased Millipore (Kinaseprofiler assay service)
Description: as §2

GSK3β = biological target: T23, GSK3β (Homo sapiens, UniProt P49841); test: Millipore Kinaseprofiler, GSK3β; type: biochemical; conditions: tested at 100 nM
T23 construct: purchased Millipore (Kinaseprofiler assay service)
T23 sequence (P49841 whole entry): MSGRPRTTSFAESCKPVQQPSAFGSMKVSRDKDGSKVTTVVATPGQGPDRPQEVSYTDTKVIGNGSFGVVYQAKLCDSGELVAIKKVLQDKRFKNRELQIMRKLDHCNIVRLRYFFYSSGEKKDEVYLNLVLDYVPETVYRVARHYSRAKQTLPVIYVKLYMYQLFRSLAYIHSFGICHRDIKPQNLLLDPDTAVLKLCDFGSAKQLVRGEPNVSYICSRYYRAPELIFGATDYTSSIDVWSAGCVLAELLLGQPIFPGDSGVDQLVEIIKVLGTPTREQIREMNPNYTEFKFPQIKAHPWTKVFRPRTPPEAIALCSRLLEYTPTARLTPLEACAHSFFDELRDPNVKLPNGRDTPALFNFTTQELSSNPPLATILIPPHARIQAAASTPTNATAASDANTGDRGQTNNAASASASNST
Description: as §2

[6] = p.o. dose 5.25 mg/kg, dose-normalised

Structure (SMILES): Cc1ccc(Sc2cnc(Nc3cccc(Br)n3)s2)cc1C(=O)N1CCN(C(=O)CN)CC1 [Compound 20h]
IC50 (TrkA [1]): 0.6 nM

IC50 (c-Met [2]): 30 nM
IC50 (VEGFR2): 10 nM
inhibition at 0.1 µM (TrkA human enzyme): 94%
Structure (SMILES): COc1cc2nccc(Oc3ccc(NC(=O)N4CCN(c5ccccc5)C4=O)cc3F)c2cc1OC [Cpd 2]

Structure (SMILES): O=C(Nc1cc(Oc2ccc(NC(=O)N3CCN(c4ccccc4)C3=O)cc2F)ncn1)N1CCCC1 [Cpd 3]
IC50 (c-Met [2]): 50 nM
IC50 (VEGFR2): 150 nM
inhibition at 0.1 µM (TrkA human enzyme): 16%

IC50 (TrkA human enzyme): 20 nM
Structure (SMILES): Nc1ccc(Oc2cccc(NC(=O)N3CCN(c4ccccc4)C3=O)c2)cn1 [Cpd 13]

inhibition at 0.03 µM (TrkA human enzyme): 15%
Structure (SMILES): COc1ccc(NC(=O)N2CCN(c3ccccc3)C2=O)cc1Oc1ccc(NC(C)=O)nc1 [Cpd 11]

inhibition at 0.03 µM (TrkA human enzyme): 6%
Structure (SMILES): CC(=O)Nc1ccc(Oc2cc(NC(=O)N3CCN(c4ccccc4)C3=O)ccc2C)cn1 [Cpd 10]

IC50 (c-Met [2]): 30 nM
IC50 (VEGFR2): 230 nM
inhibition at 0.1 µM (TrkA human enzyme): 49%
Structure (SMILES): O=C(Nc1cc(Oc2ccc(NC(=O)N3CCN(c4ccccc4)C3=O)cc2F)ccn1)N1CCCC1 [Cpd 4]

IC50 (TrkA human enzyme): 2 nM
Structure (SMILES): CNC(=O)Nc1ccc(Oc2cccc(NC(=O)N3CCN(c4ccc(F)cc4)C3=O)c2)cn1 [Cpd 16]

IC50 (TrkA human enzyme): 3 nM
Structure (SMILES): CC(=O)Nc1ccc(Oc2cccc(NC(=O)N3CCN(c4ccc(F)cc4)C3=O)c2)cn1 [Cpd 14]

inhibition at 0.03 µM (TrkA human enzyme): 0%
Structure (SMILES): CC(=O)Nc1ccc(Oc2ccc(Cl)c(NC(=O)N3CCN(c4ccccc4)C3=O)c2)cn1 [Cpd 12]

Structure (SMILES): CC(C)Oc1cc(Nc2nc(N[C@@H](C)c3ccc(F)cc3)ncc2Cl)n[nH]1 [AZ-23]
IC50 (TrkA [1]): < 3 nM
EC50 (TrkA [3]): 1 nM

IC50 (TrkA human enzyme): 4 nM
Structure (SMILES): O=C(NCCN1CCCC1)Nc1ccc(Oc2cccc(NC(=O)N3CCN(c4ccc(F)cc4)C3=O)c2)cn1 [Cpd 17]

inhibition at 0.03 µM (TrkA human enzyme): 5%
Structure (SMILES): CC(=O)Nc1ccc(NC(=O)Nc2cccc(NC(=O)N3CCN(c4ccccc4)C3=O)c2)cn1 [Cpd 6]

Structure (SMILES): CCNC(=O)OC(C)C1c2ccccc2-c2c3c(c4c([nH]c5ccccc54)c21)CNC3=O (stereo not shown) [Compound 12a]
IC50 (TrkA [1]): 8 nM

inhibition at 0.1 µM (CHK1): < 40%
inhibition at 0.1 µM (IKKβ): < 40%
inhibition at 0.1 µM (Ret): < 40%
inhibition at 0.1 µM (Flt3): 83%
inhibition at 0.01 µM (TrkB): 40%
clearance ([4]; in vivo, iv, i.v. dose 2.58 mg/kg, read-out: Cl i.v. (converted)): 55 mL/min/kg
half-life ([4]; in vivo, iv, i.v. dose 2.58 mg/kg, read-out: T1/2, i.v. (converted)): 1.5 h
Vd ([4]; in vivo, iv, i.v. dose 2.58 mg/kg, read-out: Vss i.v.): 3.7 L/kg
bioavailability ([4]; in vivo, oral, i.v. 2.58 mg/kg, p.o. 5.25 mg/kg): 99%
Tmax ([4]; in vivo, po, p.o. dose 5.25 mg/kg): 4 h
N. AUC, p.o. [4, 6]: 0.83 μM.h/(mg/kg)
N. C max, p.o. [4, 6]: 0.08 μM/(mg/kg)
inhibition at 0.1 µM (PI3-Kinaseβ): < 40%
inhibition at 0.1 µM (cKit): < 40%
inhibition at 0.1 µM (Tie2): < 40%
IC50 (c-Met [2]): 310 nM
IC50 (VEGFR2): 2500 nM
inhibition at 0.1 µM (PKBα): < 40%
inhibition at 0.03 µM (TrkA human enzyme): 96%
inhibition at 0.1 µM (TrkA human enzyme): 98%
IC50 (TrkA human enzyme): 4 nM
inhibition at 0.1 µM (MEK1): < 40%
inhibition at 0.1 µM (Pim-1): < 40%
inhibition at 0.1 µM (Bmx): < 40%
inhibition at 0.1 µM (Haspin): < 40%
inhibition at 0.1 µM (ALK): < 40%
inhibition at 0.1 µM (EphB4): < 40%
inhibition at 0.1 µM (FAK): < 40%
inhibition at 0.1 µM (JAK3): < 40%
inhibition at 0.1 µM (JAK2): < 40%
inhibition at 0.1 µM (c-Raf): < 40%
inhibition at 0.1 µM (LIMK1): < 40%
inhibition at 0.1 µM (Ron): < 40%
inhibition at 0.1 µM (c-Met [5]): < 40%
inhibition at 0.1 µM (PDK1): < 40%
inhibition at 0.1 µM (GSK3β): < 40%
Structure (SMILES): CC(=O)Nc1ccc(Oc2cccc(NC(=O)N3CCN(c4ccccc4)C3=O)c2)cn1 [Cpd 5]

Structure (SMILES): NC(=O)Nc1snc(S[C@@H]2CCCCc3ccccc32)c1C(N)=O [Compound 5n]
IC50 (TrkA [1]): < 1 nM

IC50 (TrkA human enzyme): 5 nM
Structure (SMILES): CNC(=O)Nc1ccc(Oc2cccc(NC(=O)N3CCN(c4ccccc4)C3=O)c2)cn1 [Cpd 15]

inhibition at 0.03 µM (TrkA human enzyme): 16%
Structure (SMILES): CC(=O)Nc1ccc(C#Cc2cccc(NC(=O)N3CCN(c4ccccc4)C3=O)c2)cn1 [Cpd 7]

IC50 (c-Met [2]): 20 nM
IC50 (VEGFR2): 10 nM
inhibition at 0.1 µM (TrkA human enzyme): 82%
Structure (SMILES): CCn1cnc(-c2cc3nccc(Oc4ccc(NC(=O)N5CCN(c6ccccc6)C5=O)cc4F)c3s2)c1 [Cpd 1]
